In brackets after ≈: the same amount, converted by molar mass. Where two headings read alike, the source gives them in different places.
Experiments:
Bacillus sp. TA 27860 = test: Minimum Inhibitory Concentration, agarwell diffusion assay (Table 6); assay type: cell-based; conditions: for MIC: Bacillus
Description: (§1) (a) Lowest twofold dilution giving zone of inhibition in the agarwell
(§2) (b) NRRL collection number, all the rest ate ATCC numbers.

Staph. aureus 6538 = test: as above; assay type: cell-based; conditions: for MIC: Staphylococcus aureus, 6538, read-out: Minimum Inhibitory Concentration, Staph. aureus 6538
Description: as §1, §2

[1] = system: Streptococcus cellulosac 3313; test: as above; assay type: cell-based; conditions: for MIC: Streptococcus, 3313, read-out: Minimum Inhibitory Concentration, Streptococcus cellulosac 3313
Description: as §1, §2

Bacillus sp. E 27859 = test: as above; assay type: cell-based; conditions: for MIC: Bacillus
Description: as §1, §2

Bacillus megaterium 8CU = test: as above; assay type: cell-based; conditions: for MIC: Priestia megaterium, 8CU, read-out: Minimum Inhibitory Concentration, Bacillus megaterium 8CU
Description: as §1, §2

Bacillus subtilis 583 = test: as above; assay type: cell-based
Description: as §1, §2

[2] = system: Paceilomyces variotl 25820; test: as above; assay type: cell-based; conditions: for MIC: read-out: Minimum Inhibitory Concentration, Paceilomyces variotl 25820
Description: as §1, §2

Sarcina lutca 9341 = test: as above; assay type: cell-based; conditions: for MIC: Sarcina, 9341, read-out: Minimum Inhibitory Concentration, Sarcina lutca 9341
Description: as §1, §2

[3] = system: Streptococcus faecium 8043; test: as above; assay type: cell-based
Description: as §1, §2

MycoBacterium phiel 355 = test: as above; assay type: cell-based; conditions: for MIC: Mycobacterium, 355, read-out: Minimum Inhibitory Concentration, MycoBacterium phiel 355
Description: as §1, §2

rumen fluid = conditions: control 100
[4] = Oral antihypertensive activity: blood pressure and heart rate (Table 9); assay type: in vivo; conditions: oral dose 10 mg/kg
Description: Compounds of formula I, and their pharmaceutically acceptable salts are orally active as antihypertensive agents.

Treponema hyodysenteriae = test: Activity against Treponema hyodysenteriae (MIC, blood agar plates); assay type: cell-based; conditions: 42° C., anaerobic
Description: Testing for activity against Treponema hyodysenteriae, a cause of swine dysentery consisted of inoculation of blood agar plates containing a series of two or fourfold dilutions of the monensin urethane derivatives with tenfold dilutions of the T. hyodysenteriae strain.

[5] = SP.TA27860, Bacillus sp. TA 27860, read-out: Minimum Inhibitory Concentration
[6] = SP.E27859, Bacillus sp. E 27859, read-out: Minimum Inhibitory Concentration
[7] = Bacillus subtilis, 583, Bacillus subtilis 583 (NRRL), read-out: Minimum Inhibitory Concentration
[8] = Enterococcus faecium, 8043, Streptococcus faecium 8043, read-out: Minimum Inhibitory Concentration

Compound | MIC (Bacillus sp. TA 27860; [5]) | MIC (Staph. aureus 6538) | MIC [1] | MIC (Bacillus sp. E 27859; [6]) | MIC (Bacillus megaterium 8CU) | MIC (Bacillus subtilis 583; [7]) | MIC [2] | MIC (Sarcina lutca 9341) | MIC [3, 8] | MIC (MycoBacterium phiel 355) | further results
CCCCNC(=O)OCC1(O)OC(C2CC(C)C(C3(CC)CCC(C4(C)CCC5(CC(O)C(C)C(C(C)C(OC)C(C)C(=O)O)O5)O4)O3)O2)C(C)CC1C (stereo not drawn) [Monensin A, N-butylurethane] | 0.4 µg/mL (≈ 0.519 µM) | 1.6 µg/mL (≈ 2.08 µM) | 3.1 µg/mL (≈ 4.03 µM) | 0.2 µg/mL (≈ 0.26 µM) | 0.8 µg/mL (≈ 1.04 µM) | 0.4 µg/mL (≈ 0.519 µM) | 6.3 µg/mL (≈ 8.18 µM) | 1.6 µg/mL (≈ 2.08 µM) | 0.2 µg/mL (≈ 0.26 µM) | 6.3 µg/mL (≈ 8.18 µM) | 
COC(C(C)C(=O)O)C(C)C1OC2(CCC(C)(C3CCC(C)(C4OC(C5OC(O)(COC(=O)NC(C)c6ccccc6)C(C)CC5C)CC4C)O3)O2)CC(O)C1C [Monensin B, (S)-1-phenethylurethane] |  |  |  |  |  |  |  |  |  |  | Minimum Inhibitory Concentration (Bacillus sp. TA 27860; Bacillus sp. TA 27860, listed as Monensin B,(S)-1-phenethylurethane): 0.2 meg/ml; Minimum Inhibitory Concentration (Staph. aureus 6538; Staph. aureus 6538, listed as Monensin B,(S)-1-phenethylurethane): 1.6 meg/ml; Minimum Inhibitory Concentration ([1]; Streptococcus cellulosac 3313, listed as Monensin B,(S)-1-phenethylurethane): 6.3 meg/ml; Minimum Inhibitory Concentration (Bacillus sp. E 27859; Bacillus sp. E 27859, listed as Monensin B,(S)-1-phenethylurethane): 0.1 meg/ml; Minimum Inhibitory Concentration (Bacillus megaterium 8CU; Bacillus megaterium 8CU, listed as Monensin B,(S)-1-phenethylurethane): 0.4 meg/ml; Minimum Inhibitory Concentration (Bacillus subtilis 583; Bacillus subtilis 583 (NRRL)): 0.8 meg/ml; Minimum Inhibitory Concentration ([2]; Paceilomyces variotl 25820, listed as Monensin B,(S)-1-phenethylurethane): 6.3 meg/ml; Minimum Inhibitory Concentration (Sarcina lutca 9341; Sarcina lutca 9341): 1.6 meg/ml; Minimum Inhibitory Concentration ([3]; Streptococcus faecium 8043, listed as Monensin B,(S)-1-phenethylurethane): 0.2 meg/ml; Minimum Inhibitory Concentration (MycoBacterium phiel 355; MycoBacterium phiel 355): 6.3 meg/ml
CCC1(C2OC(C3OC(O)(COC(=O)NCCc4ccccc4)C(C)CC3C)CC2C)CCC(C2(C)CCC3(CC(O)C(C)C(C(C)C(OC)C(C)C(=O)O)O3)O2)O1 (stereo not drawn) [Monensin A, 2-phenethylurethane] | 1.6 µg/mL (≈ 1.96 µM) | 6.3 µg/mL (≈ 7.7 µM) | 12.5 µg/mL (≈ 15.3 µM) | 0.8 µg/mL (≈ 0.978 µM) | 0.8 µg/mL (≈ 0.978 µM) | 1.6 µg/mL (≈ 1.96 µM) | 12.5 µg/mL (≈ 15.3 µM) | 1.6 µg/mL (≈ 1.96 µM) | 0.4 µg/mL (≈ 0.489 µM) | 6.3 µg/mL (≈ 7.7 µM) | Rate of Gas Production, Percent Production of Control Fermentations (rumen fluid; 50 ppm): 101.7%; Total VFA, Percent Production of Control Fermentations (rumen fluid; 50 ppm): 84.3%; Day of Maximum Change, Blood Pressure [4]: 5 days; Day of Maximum Change, Heart Rate [4]: 2 days; Maximum Change (%), Blood Pressure [4]: 15%; Maximum Change (%), Heart Rate [4]: 18%; Mean Blood Pressure at time of maximum effect [4]: 189 mm Hg; Mean Blood Pressure before treatment [4]: 223 mm Hg
CC[C@@]1([C@@H]2O[C@@H]([C@H]3O[C@@](O)(CO)[C@H](C)C[C@@H]3C)C[C@@H]2C)CC[C@H]([C@]2(C)CC[C@]3(C[C@H](O)[C@@H](C)[C@@H]([C@@H](C)[C@@H](OC)[C@H](C)C(=O)O)O3)O2)O1 [Monensin] |  |  |  |  |  |  |  |  |  |  | Rate of Gas Production, Percent Production of Control Fermentations (rumen fluid; 10 ppm): 85%; Total VFA, Percent Production of Control Fermentations (rumen fluid; 10 ppm): 110.7%; Rate of Gas Production, Percent Production of Control Fermentations (rumen fluid; 50 ppm): 89%; Total VFA, Percent Production of Control Fermentations (rumen fluid; 50 ppm): 105.3%
CCC1(C2OC(C3OC(O)(COC(=O)NC4CC4c4ccccc4)C(C)CC3C)CC2C)CCC(C2(C)CCC3(CC(O)C(C)C(C(C)C(OC)C(C)C(=O)O)O3)O2)O1 (stereo not drawn) [Monensin A, 2-(phenyl)-cyclopropyl urethane] | 0.4 µg/mL (≈ 0.482 µM) | 3.1 µg/mL (≈ 3.73 µM) | 12.5 µg/mL (≈ 15.1 µM) | 0.4 µg/mL (≈ 0.482 µM) | 0.8 µg/mL (≈ 0.964 µM) | 0.8 µg/mL (≈ 0.964 µM) | 6.3 µg/mL (≈ 7.59 µM) | 0.8 µg/mL (≈ 0.964 µM) | 0.2 µg/mL (≈ 0.241 µM) | 3.1 µg/mL (≈ 3.73 µM) | MIC (Treponema hyodysenteriae; Brachyspira hyodysenteriae, 48 h): 0.4 µg/mL (≈ 0.482 µM)
CCC1(C2OC(C3OC(O)(COC(=O)Nc4ccc(Oc5ccccc5)cc4)C(C)CC3C)CC2C)CCC(C2(C)CCC3(CC(O)C(C)C(C(C)C(OC)C(C)C(=O)O)O3)O2)O1 (stereo not drawn) [Monensin A, 4-phenoxyphenylurethane] | 0.2 µg/mL (≈ 0.227 µM) | 0.4 µg/mL (≈ 0.453 µM) | 0.8 µg/mL (≈ 0.907 µM) | 0.4 µg/mL (≈ 0.453 µM) | 0.4 µg/mL (≈ 0.453 µM) | 0.4 µg/mL (≈ 0.453 µM) | 0.8 µg/mL (≈ 0.907 µM) | 0.4 µg/mL (≈ 0.453 µM) | 0.1 µg/mL (≈ 0.113 µM) | 1.6 µg/mL (≈ 1.81 µM) | 
CCC1(C2OC(C3OC(O)(COC(=O)Nc4ccc(OC)cc4)C(C)CC3C)CC2C)CCC(C2(C)CCC3(CC(O)C(C)C(C(C)C(OC)C(C)C(=O)O)O3)O2)O1 (stereo not drawn) [Monensin A,4-methoxyphenylurethane] |  | 1.6 µg/mL (≈ 1.95 µM) | 6.3 µg/mL (≈ 7.68 µM) |  | 0.8 µg/mL (≈ 0.976 µM) |  |  | 1.6 µg/mL (≈ 1.95 µM) |  | 1.6 µg/mL (≈ 1.95 µM) | MIC (Bacillus sp. TA 27860; SP.TA27860, read-out: Minimum Inhibitory Concentration, Bacillus sp. TA 27860): 6.3 µg/mL (≈ 7.68 µM); MIC (Bacillus sp. E 27859; SP.E27859, read-out: Minimum Inhibitory Concentration, Bacillus sp. E 27859): 0.1 µg/mL (≈ 0.122 µM); MIC (Bacillus subtilis 583; Bacillus subtilis, 583, read-out: Minimum Inhibitory Concentration, Bacillus subtilis 583 (NRRL)): 0.8 µg/mL (≈ 0.976 µM); MIC ([3]; Enterococcus faecium, 8043, read-out: Minimum Inhibitory Concentration, Streptococcus faecium 8043): 0.4 µg/mL (≈ 0.488 µM)
CCC1(C2OC(C3OC(O)(COC(=O)NC)C(C)CC3C)CC2C)CCC(C2(C)CCC3(CC(O)C(C)C(C(C)C(OC)C(C)C(=O)O)O3)O2)O1 (stereo not drawn) [Monensin A, n-methylurethane] | 12.5 µg/mL (≈ 17.2 µM) | 25 µg/mL (≈ 34.3 µM) |  | 6.3 µg/mL (≈ 8.65 µM) | 6.3 µg/mL (≈ 8.65 µM) | 1.6 µg/mL (≈ 2.2 µM) |  | 25 µg/mL (≈ 34.3 µM) | 1.6 µg/mL (≈ 2.2 µM) |  | 
Monensin A, 2-phenylurethane |  |  |  |  |  |  |  |  |  |  | MIC (Treponema hyodysenteriae; 48 hours): 0.4 meg/ml
COC(C(C)C(=O)O)C(C)C1OC2(CCC(C)(C3CCC(C)(C4OC(C5OC(O)(COC(=O)NCCc6ccccc6)C(C)CC5C)CC4C)O3)O2)CC(O)C1C (stereo not drawn) [Monensin B, 2-phenethylurethane] | 3.1 µg/mL (≈ 3.86 µM) | 6.3 µg/mL (≈ 7.84 µM) | 12.5 µg/mL (≈ 15.5 µM) | 1.6 µg/mL (≈ 1.99 µM) | 3.1 µg/mL (≈ 3.86 µM) | 3.1 µg/mL (≈ 3.86 µM) |  | 3.1 µg/mL (≈ 3.86 µM) | 0.8 µg/mL (≈ 0.995 µM) | 25 µg/mL (≈ 31.1 µM) | MIC (Treponema hyodysenteriae; 48 hours, 2-phenethylurethane (natural product)): 0.4-2.0 meg/ml; MIC (Treponema hyodysenteriae; 48 hours, 2-phenethylurethane (synthetic product)): 2.0 meg/ml; Rate of Gas Production, Percent Production of Control Fermentations (rumen fluid; 10 ppm): 93%; Total VFA, Percent Production of Control Fermentations (rumen fluid; 10 ppm): 157.8%; Rate of Gas Production, Percent Production of Control Fermentations (rumen fluid; 50 ppm): 92%; Total VFA, Percent Production of Control Fermentations (rumen fluid; 50 ppm): 149.1%; Day of Maximum Change, Blood Pressure [4]: 2 days; Day of Maximum Change, Heart Rate [4]: 3 days; Maximum Change (%), Blood Pressure [4]: 13%; Maximum Change (%), Heart Rate [4]: 14%; Mean Blood Pressure at time of maximum effect [4]: 189 mm Hg; Mean Blood Pressure before treatment [4]: 216 mm Hg
CCC1(C2OC(C3OC(O)(COC(=O)Nc4ccc(C(C)=O)cc4)C(C)CC3C)CC2C)CCC(C2(C)CCC3(CC(O)C(C)C(C(C)C(OC)C(C)C(=O)O)O3)O2)O1 (stereo not drawn) [Monensin A,4-(methylcarbonyl) phenylurethane] | 0.8 µg/mL (≈ 0.961 µM) | 1.6 µg/mL (≈ 1.92 µM) | 3.1 µg/mL (≈ 3.73 µM) | 0.2 µg/mL (≈ 0.24 µM) | 1.6 µg/mL (≈ 1.92 µM) | 1.6 µg/mL (≈ 1.92 µM) | 6.3 µg/mL (≈ 7.57 µM) | 1.6 µg/mL (≈ 1.92 µM) | 0.8 µg/mL (≈ 0.961 µM) | 6.3 µg/mL (≈ 7.57 µM) | 

Source: patent publication US4263427A, “Monensin urethane derivatives” (priority 1979, dated 1981)
